In publication PMC10683482, “Offsetting Low-Affinity Carbohydrate Binding with Covalency to Engage Sugar-Specific Proteins for Tumor-Immune Proximity Induction” (ACS Central Science, 2023):

System: Hek-PSMA cells
Assay: Microscopy of induced antibody recruitment (opsonization)
Type: cell-based, human
Details: 8 μM compound with 4 μM anti-23F 24 h
Protocol: To test the antitumor immune function of rhamnose SO2F cARMs, GU was again incorporated as a TBD for PSMA targeting (compound 14, Figure 5A, Scheme S5). The ability to selectively induce opsonization of model prostate cancer cells via monoclonal anti-23F was first evaluated using fluorescence microscopy (Figure 5B, Figure S12). Compound 14 (8 μM) was incubated with anti-23F (4 μM) for 24 h followed by addition to PSMA expressing Hek-PSMA cells. Following a 20 min incubation, fluorescent secondary antibody was added. […] The addition of rhamnose competitor during the antibody labeling reaction again inhibited covalent antibody engagement and opsonization of target cells (Figure S12).
Figure 5 Functional analysis of PSMA-targeting SuFEx cARMs. A. Chemical structure of the functional GU cARM molecule used for PSMA targeting. B. Confocal (top) and fluorescent imaging (bottom) of Hek-PSMA cells treated with anti-23F only or anti-23F antibody pre-incubated with rhamnose-SO2F-cARM 14. C. Jurkat activation assay evaluation of 14 directly in polyclonal human IgG. Each cARM/ARM (9 μM) was incubated with polyclonal human IgG (230 μM) overnight and then added to pre-plated Hek-P cells (50,000 cells). […] Activation of jurkat cells was determined by measuring luciferase expression with a BioGlo assay kit. […] ADCP was determined via flow cytometry. […]

C[C@@H]1O[C@@H](OCc2cn(CCCNC(=O)OCCNC(=O)CCCCCNC(=O)CCCCCNC(=O)CCCCCNC(=O)NCCCC[C@H](NC(=O)N[C@@H](CCC(=O)O)C(=O)O)C(=O)O)nn2)[C@H](O)[C@H](O)[C@H]1O [compound 11]
opsonization of target cells: failed to opsonize target cells
